Publication PMC7352059 (Biotechnology Reports, 2020)

Tests used:
Experiment in all cases: dopachrome formation, absorbance […] nm, non-linear regression
Conditions in all cases: free enzyme; 0.05 M Na-phosphate pH 6.5; 1-30 mM L-DOPA
[1] = test system: tyrosinase from D. praehensilis; type: biochemical, Dioscorea praehensilis
tyrosinase from D. alata = type: biochemical, Dioscorea alata
[2] = test system: tyrosinase from D. rotundata; type: biochemical, Dioscorea cayenensis subsp. rotundata
[3] = test system: tyrosinase from C. esculenta; type: biochemical, Colocasia esculenta

Km [1]: 9.6 ± 3.7 mM | Km (tyrosinase from D. alata): 20 ± 11 mM | Km [2]: 6.8 ± 2.6 mM | Km [3]: 23.7 ± 14 mM
Structure (SMILES): N[C@@H](Cc1ccc(O)c(O)c1)C(=O)O [L-DOPA, 3,4-dihydroxyphenyl-L-alanine]
